Assays:
MSCs = conditions: 1 μg/ml, alone; cited from earlier work
human BMSC = test: In vitro differentiation of human BMSC; immunocytochemistry and Western blot; type: cell-based; conditions: replated in medium containing the mitogen
From the text: To briefly summarize, BMSC were separated from whole bone marrow of the mouse, calf and humans.
BMSC were isolated from residual bone marrow material (bone chips with adherent stromal cells, fatty tissue and debris) which was retained on the nylon mesh filters routinely used in filtering freshly procured human marrow to be used for bone marrow transplantation. The filtrate contains the bulk of the bone marrow hematopoietic elements that is then processed for human bone marrow replacement. We use the filters that were usually discarded. The filters were back washed five times with PBS. The PBS solution was centrifuged to deposit the heavier bone chips. The supernatant was resuspended in culture medium and plated in tissue culture flasks (as in Example 1). BMSC were separated by their adherence to plastic culture flasks, whereas the smaller hematopoietic stem cells remained suspended in the media and were removed when the culture media was replaced with fresh media. […]
After 7 days, expressions of neuronal markers (Nestin, Neuron Specific Nuclear protein or NeuN and GFAP) and a bone marrow stromal cell marker (fibronectin) were analyzed by Western blot analysis and immunocytochemistry (FIG. 6). […]

For `C[C@@H]1[C@H](O)[C@@H](C)/C=C/C=C/C=C/C=C/C=C/C=C/C=C/[C@H](O[C@@H]2O[C@H](C)[C@@H](O)[C@H](N)[C@@H]2O)C[C@@H]2O[C@](O)(C[C@@H](O)C[C@@H](O)[C@H](O)CC[C@@H](O)C[C@@H](O)CC(=O)O[C@H]1C)C[C@H](O)[C@H]2C(=O)O` [amphotericin B], the “differentiation of MSCs into myoblasts and myotubes” value (MSCs) is listed as “differentiate into myoblasts and myotubes”.

In the case of “EGF: epidermal growth factor, mitogen used at 10 ng/ml (NSDSECPLSHDGYCLHDGVCMYIEALDKYACNCVVGYIGERCQYRDLKWWELR; Epidermal growth factor; UniProt P01133 971-1023, looked up)”, the “proliferation and differentiation of human bone marrow cells” value (human BMSC) is reported as “proliferation of cells, without significant induction of differentiation”.

From patent US6528245B2, “Bone marrow cells as a source of neurons for brain and spinal cord repair” (University of South Florida, priority 1998, dated 2003)
